Assay results as given in ChEMBL document CHEMBL1201862, “PubChem BioAssay data set” (2004).
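Compound exposure: 48 hours, 5 concentrations, 96-well plates. GI50 marks 50% less growth.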 Calls of active or inactive are those of the source. Rule as the data show it: active = GI50 up to about 1.1 µM and inactive = higher.

Tests used:
Assay in all cases: NCI anticancer screen, dose series, 48 h
[1] = tested on: NCI-H522
[2] = tested on: NCI-H226
[3] = tested on: UACC-62
[4] = tested on: TK-10
[5] = tested on: 786-0
[6] = tested on: HCC 2998
[7] = tested on: SF-295
[8] = tested on: HT-29
[9] = tested on: RXF 393
[10] = tested on: HCT-15
[11] = tested on: NCI-H23
[12] = tested on: HOP-92
[13] = tested on: MOLT-4
[14] = tested on: K562
[15] = tested on: NCI-H460
[16] = tested on: SK-MEL-28
[17] = tested on: LOX IMVI
[18] = tested on: M14
[19] = tested on: A498

Row | Structure (SMILES) | GI50 [1] | GI50 [2] | GI50 [3] | GI50 [4] | GI50 [5] | GI50 [6] | GI50 [7] | GI50 [8] | GI50 [9] | GI50 [10] | GI50 [11] | GI50 [12] | GI50 [13] | GI50 [14] | GI50 [15] | GI50 [16] | GI50 [17] | GI50 [18] | GI50 [19]
1 | C/C=C1\CN2CCc3c([nH]c4ccccc34)C2CC1C(=O)OC (stereo unspecified) | 287 µM (inactive) | > 322 µM (inactive) | > 322 µM (inactive) | > 322 µM (inactive) | > 322 µM (inactive) | > 322 µM (inactive) | > 322 µM (inactive) | > 322 µM (inactive) | > 322 µM (inactive) | > 322 µM | > 322 µM (inactive) | 169 µM (inactive) | > 322 µM (inactive) | > 322 µM (inactive) | > 322 µM (inactive) | > 322 µM (inactive) | > 322 µM (inactive) | – | –
2 | CC1(C)OC(C[C@]2(C#N)C[C@H](CCl)OC(C)(C)O2)C[C@@H](C[C@]2(C#N)C[C@H](CCl)OC(C)(C)O2)O1 (stereo partly specified) | > 100 µM (inactive) | > 100 µM (inactive) | > 100 µM (inactive) | > 100 µM (inactive) | > 100 µM (inactive) | > 100 µM (inactive) | > 100 µM (inactive) | > 100 µM (inactive) | – | > 100 µM | > 100 µM (inactive) | > 100 µM (inactive) | 38.8 µM (inactive) | > 100 µM (inactive) | > 100 µM (inactive) | > 100 µM (inactive) | > 100 µM (inactive) | > 100 µM (inactive) | > 100 µM (inactive)
3 | CC(NS(=O)(=O)c1ccc(Cl)cc1)C(=O)O (stereo unspecified) | > 100 µM (inactive) | – | > 100 µM (inactive) | > 100 µM (inactive) | > 100 µM (inactive) | – | > 100 µM (inactive) | > 100 µM (inactive) | > 100 µM (inactive) | > 100 µM | > 100 µM (inactive) | > 100 µM (inactive) | > 100 µM (inactive) | > 100 µM (inactive) | > 100 µM (inactive) | > 100 µM (inactive) | > 100 µM (inactive) | > 100 µM (inactive) | > 100 µM (inactive)
4 | Cc1cc(=O)oc2c1cc(OCC(=O)OCCN1CCCCC1)c1occ(C)c12 | – | > 100 µM (inactive) | > 100 µM (inactive) | > 100 µM (inactive) | > 100 µM (inactive) | > 100 µM (inactive) | > 100 µM (inactive) | > 100 µM (inactive) | > 100 µM (inactive) | > 100 µM | > 100 µM (inactive) | > 100 µM (inactive) | > 100 µM (inactive) | > 100 µM (inactive) | > 100 µM (inactive) | > 100 µM (inactive) | > 100 µM (inactive) | > 100 µM (inactive) | > 100 µM (inactive)
5 | Cc1cc(-c2nc3ccccc3s2)ccc1NS(=O)(=O)O | – | > 39.9 µM (inactive) | > 12.2 µM (inactive) | > 26.1 µM (inactive) | > 8.85 µM (inactive) | – | > 43.1 µM (inactive) | > 4.65 µM (inactive) | – | > 4.65 µM | > 7.11 µM (inactive) | – | 4.73 µM (inactive) | 4.65 µM (inactive) | – | > 42 µM (inactive) | > 4.65 µM (inactive) | > 29.5 µM (inactive) | 65.9 µM (inactive)
6 | COC(=O)CC[C@@H](NC(=O)C(C)NC(=O)COC1C(O)C(COC(=O)CCCCCCCCCCNC(=O)c2ccc([N+](=O)[O-])c3[nH]c4cc(Br)ccc4c(=O)c23)OC(OCc2ccccc2)C1NC(C)=O)C(N)=O (stereo partly specified) | 32.7 µM (inactive) | 25.1 µM (inactive) | 65.8 µM (inactive) | > 100 µM (inactive) | > 100 µM (inactive) | 22.5 µM (inactive) | > 100 µM (inactive) | > 100 µM (inactive) | 56.6 µM (inactive) | > 100 µM | > 100 µM (inactive) | 37.1 µM (inactive) | 70.3 µM (inactive) | 44.4 µM (inactive) | 57.3 µM (inactive) | > 100 µM (inactive) | 44.2 µM (inactive) | 61.4 µM (inactive) | –
7 | CCOC(=O)C(C)(C)Oc1ccc2c(C)c(-c3ccc(Cl)cc3)c(=O)oc2c1 | – | 14.9 µM (inactive) | 32.5 µM (inactive) | > 100 µM (inactive) | > 100 µM (inactive) | 59 µM (inactive) | 79.6 µM (inactive) | 20.7 µM (inactive) | > 100 µM (inactive) | 34.3 µM | 19.6 µM (inactive) | – | 20 µM (inactive) | 14.7 µM (inactive) | > 100 µM (inactive) | > 100 µM (inactive) | 34.9 µM (inactive) | 74.8 µM (inactive) | > 100 µM (inactive)
8 | Cc1cc(C)c2c(c1C)CN1CN2Cc2c(C)c(C)cc(C)c21 | > 100 µM (inactive) | > 100 µM (inactive) | > 100 µM (inactive) | > 100 µM (inactive) | > 100 µM (inactive) | – | > 100 µM (inactive) | 44.4 µM (inactive) | 4.38 µM (inactive) | 20.4 µM | 6.84 µM (inactive) | 67.1 µM (inactive) | > 100 µM (inactive) | 8.75 µM (inactive) | 48.4 µM (inactive) | > 100 µM (inactive) | > 100 µM (inactive) | > 100 µM (inactive) | –
